The values that follow come from article PMC11840605, “Crystallographic and Thermodynamic Evidence of Negative Coupling in the Flavin-Dependent Tryptophan Halogenases AbeH and BorH” (ACS Omega, 2025).

SMILES strings stand for the structures. Read-outs that look alike come from different tables or passages of the source.

In experiment [1] the target is T1, BorH (uncultured bacterium, UniProt M9QSI0). Briefly: Quenching of BorH intrinsic Trp fluorescence upon FAD titration. Details: species or system uncultured soil actinomycetes. The note with it: 100 nM BorH; read-out: KD, FAD binding to BorH, BorH intrinsic Trp fluorescence. How it is done:
Intrinsic tryptophan fluorescence spectroscopy was used to measure FAD binding to AbeH and BorH in 20 mM HEPES pH 7.7- and 50 mM sodium citrate. FAD was prepared in the same buffer and its concentration was determined spectrophotometrically as described earlier. Fluorescence experiments were performed as described earlier. FAD binding to apo-AbeH or apo-BorH was performed in duplicate with 100 nM fixed AbeH or BorH with variable FAD concentrations up to 30 and 70 μM, respectively. AbeH/FAD binding was monitored using excitation at 295 nm and emission at 328 nm. BorH/FAD binding was monitored using excitation at 290 nm and emission at 326 nm. Inner filter effect corrected fluorescence intensities were plotted against quenched intrinsic tryptophan fluorescence of AbeH and BorH. Data were fitted by nonlinear regression to eq 1 using GraphPad Prism 8.0.
Figure S9: FAD binding determined by quenching of BorH and AbeH intrinsic Trp fluorescence.
A. Variable concentrations of FAD (0-70 µM) were incubated with 100 nM BorH and Trp fluorescence was measured with excitation at 290 nm and emission at 326 nm. […]
B. Variable concentrations of FAD (0-30 µM) were incubated with 100 nM AbeH and Trp fluorescence was measured […] with excitation at 295 nm and emission at 328 nm. […]

The target of experiment [2] is T2, AbeH (uncultured bacterium, UniProt F6LWA5). Briefly: Isothermal titration calorimetry, ligand into AbeH. In kind it is binding, uncultured soil actinomycetes. The procedure:
(§1) ITC experiments were performed using a VP-ITC isothermal titration calorimeter (MicroCal) in 20 mM HEPES pH 7.5, 350 mM NaCl, 1 mM ethylenediamine tetraacetic acid (EDTA) and 15% (v/v) glycerol. Solutions of AbeH, BorH, FAD (Chem-Implex), and Trp (Acros Organics) were prepared in the same buffer and degassed under vacuum at 30 °C for 20 min before loading in the syringe or cell. To analyze formation of binary complexes, AbeH or BorH was placed inside the cell, and ligand (FAD or Trp) was injected. For ternary complex titration, one ligand was preincubated with the macromolecule for 30 min at 30 °C to form binary complexes of AbeH/FAD, AbeH/Trp, BorH/FAD, and BorH/Trp before titrating with the second ligand. To test FADH2 binding to AbeH and BorH, FAD was reduced to FADH2 using sodium dithionite and stored under N2. Formation of FADH2 by sodium dithionite was verified using absorbance and fluorescence spectrophotometry.
(§2) ITC experiments were performed with reference power set to 10 μcal/s and Milli-Q water in the reference cell. All experiments were done with a pretitration delay of 20 min, a 5 min interval between injections, and a filter period of 2 s in high feedback gain mode. All experiments were performed at 310 rpm to mix the components in cell and titrant. All other VP-ITC instrumental parameters were set to default settings. Heats of dilution for all titrants were measured by titrating ligand into buffer for binary complex titrations, and by titrating ligand into a solution containing the other ligand but no protein for ternary complex titration.
1.2 mM FAD (2 μL/1 and 5 μL/19 injections) into 18 μM AbeH (Figure 4A)
0.12 mM FADH2 (2 μL/1 and 15 μL/19 injections) into 7 μM AbeH in the presence of sodium dithionite (Figure 4B)
1.4 mM Trp (3 μL/1 and 10 μL/29 injections) into 43 μM AbeH (Figure S7)
16 mM Trp (2 μL/1 and 10 μL/29 injections) into 18 μM AbeH (Figure 5A)
(§3) Titrations were analyzed by manually integrating each injection, subtracting the heat of dilution, and carrying out nonlinear least-squares fit of the calorimetric binding data to a one-site model using Origin 7.0 (Origin Lab). Trp binding experiments were subtracted by point-by-point heat of dilution, and FAD and FADH2 binding experiments were subtracted using the mean heat of the last three injections. For the Trp binding data, n was fixed to 1 based on expected stoichiometry of 1:1 based on FDH crystal structures and as proposed for lower c-value titrations in the literature.[23],[25],[82] The other parameters were not constrained during fitting.

The target of experiment [3] is T1, BorH. Briefly: Isothermal titration calorimetry, ligand into BorH. The format is binding, uncultured soil actinomycetes. How it is done: as §1, with “Solutions” for “ITC experiments were performed using a VP-ITC isothermal titration calorimeter (MicroCal) in 20 mM HEPES pH 7.5, 350 mM NaCl, 1 mM ethylenediamine tetraacetic acid (EDTA) and 15% (v/v) glycerol. Solutions”
as §2, §3

Experiment [4] has as its target T2, AbeH. In kind it is biochemical, uncultured soil actinomycetes. As to conditions: same reaction conditions. How it is done:
To test the ability of BorH and AbeH to chlorinate and brominate other substrates, 100 μL reactions containing 5 μM AbeH or BorH, 10 μM of holo-AbeF or holo-BorF, 100 mM NaCl or NaBr, 2.5 mM NADH, and 0.5 mM substrate in HEPES pH 8.0 were incubated for 12 h at 37 °C with shaking at 230 rpm. The reactions were stopped by heating at 95 °C for 5 min and centrifuged at 12,000g for 5 min. Clarified reaction mixtures were analyzed using RP-HPLC on a Kromasil C18 column (100 Å pore size, 4.6 × 250 mm) mounted on a Waters 2695 HPLC. The gradient was as follows: 0–7.5 min, 5–50% B; 7.5–14 min, 50–100%; 14–25 min, 100% B; 25–40 min 100–5% B with flow rate 0.6 mL/min (Solvent A = H2O/CH3CN 95:5, 0.1% TFA; Solvent B = H2O/CH3CN 5/95, 0.1% TFA). Substrates and products were detected by monitoring UV absorbance at the λmax for each substrate. Product peak fractions were analyzed using ESI-MS on a SYNAPT HDMS mass spectrometer in positive ion mode with leucine enkephalin internal standard.

Where [5] appears, read: ITC, read-out: KD, binding to BorH, ITC.

T2 sequence (F6LWA5 entry or part of it): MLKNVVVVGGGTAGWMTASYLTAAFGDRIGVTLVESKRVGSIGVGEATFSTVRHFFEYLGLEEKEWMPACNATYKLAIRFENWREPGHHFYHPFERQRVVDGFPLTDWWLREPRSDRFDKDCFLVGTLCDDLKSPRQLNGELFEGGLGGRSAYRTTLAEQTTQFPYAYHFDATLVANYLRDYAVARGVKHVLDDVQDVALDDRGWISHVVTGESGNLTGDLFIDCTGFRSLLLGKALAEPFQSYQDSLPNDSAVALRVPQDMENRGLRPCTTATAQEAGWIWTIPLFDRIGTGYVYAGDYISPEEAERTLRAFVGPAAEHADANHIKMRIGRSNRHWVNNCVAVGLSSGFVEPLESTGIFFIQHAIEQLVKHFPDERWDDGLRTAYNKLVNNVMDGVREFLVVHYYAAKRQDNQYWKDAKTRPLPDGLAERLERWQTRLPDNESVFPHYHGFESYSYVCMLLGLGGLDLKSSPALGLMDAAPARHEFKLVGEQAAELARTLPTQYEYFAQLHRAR
T1 sequence (M9QSI0 1-529): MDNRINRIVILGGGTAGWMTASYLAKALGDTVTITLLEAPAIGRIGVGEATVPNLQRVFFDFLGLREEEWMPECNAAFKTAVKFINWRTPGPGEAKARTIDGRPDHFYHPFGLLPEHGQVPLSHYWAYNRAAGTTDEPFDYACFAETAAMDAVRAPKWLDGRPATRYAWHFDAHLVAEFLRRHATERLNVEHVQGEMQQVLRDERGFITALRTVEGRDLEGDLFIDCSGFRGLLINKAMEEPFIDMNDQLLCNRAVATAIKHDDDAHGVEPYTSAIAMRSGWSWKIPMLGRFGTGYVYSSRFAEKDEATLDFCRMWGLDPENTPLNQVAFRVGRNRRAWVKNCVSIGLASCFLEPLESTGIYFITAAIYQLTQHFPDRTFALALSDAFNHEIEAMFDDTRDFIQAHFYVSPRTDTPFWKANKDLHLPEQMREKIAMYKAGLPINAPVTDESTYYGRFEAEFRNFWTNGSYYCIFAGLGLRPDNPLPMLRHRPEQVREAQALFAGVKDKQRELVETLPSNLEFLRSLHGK

Turning to `Cc1cc2nc3c(=O)[nH]c(=O)nc-3n(C[C@H](O)[C@H](O)[C@H](O)COP(=O)(O)OP(=O)(O)OC[C@H]3O[C@@H](n4cnc5c(N)ncnc54)[C@H](O)[C@@H]3O)c2cc1C` [FAD], the Kd in experiment [1] amounted to 9.1 ± 2.4 µM; in experiment [2] (ITC, read-out: KD, binding to AbeH, ITC) it was 1.2 ± 0.4 µM; in experiment [3] (setting [5]), 13 ± 3.3 µM. Further, the results for the “-TDS (-TΔS, ITC, Table S3)” value in experiment [2] (cell AbeH) and in experiment [3] (cell BorH) were -15.1 kJ/mol and 19.7 kJ/mol, respectively. In addition, the “DG (ΔG, ITC, Table S3)” value in experiment [2] (cell AbeH) was -34.3 kJ/mol; in experiment [3] (cell BorH), -28 kJ/mol. Besides, the “DH (ΔH, ITC, Table S3)” value in experiment [2] (cell AbeH) was -19.2 ± 1.7 kJ/mol; in experiment [3] (cell BorH), -47.7 ± 1.7 kJ/mol. Also, the figures for the “n (ITC, Table S3)” value in experiment [2] (cell AbeH) and in experiment [3] (cell BorH) were 0.93 ± 0.05 and 1.1 ± 0.4, respectively.

`N[C@@H](Cc1c[nH]c2ccccc12)C(=O)O` [Tryptophan, L-tryptophan]: in experiment [2], the “Trp affinity of AbeH lower than the FAD affinity” value came out at 500 ×. For the same compound, the Kd in experiment [2] (KD (ITC, Table S3), cell AbeH) was determined as 833 µM; in experiment [2] (KD for Trp/AbeH, ITC, one-site model, n fixed to 1) it was 800 µM; in experiment [3] (setting [5]) it was 430 ± 60 µM; in experiment [3] (cell BorH, read-out: KD (ITC, Table S3)), 435 µM; in experiment [3] (one-site model, n fixed to 1, read-out: KD for Trp/BorH, ITC), 400 µM. Besides, the “Heat of binding, Trp titrated into AbeH at low molar ratios” value in experiment [2] (Trp:AbeH molar ratios between 0-9, 1.4 mM Trp into 43 μM AbeH) is recorded as “no significant heat of binding detected”. Further, the “-TDS (-TΔS, ITC, Table S3)” value in experiment [2] (cell AbeH) is 1.7 kJ/mol; in experiment [3] (cell BorH), -2.1 kJ/mol. In addition, the “DG (ΔG, ITC, Table S3)” value in experiment [2] (cell AbeH) is -18 kJ/mol; in experiment [3] (cell BorH), -19.2 kJ/mol. The “DH (ΔH, ITC, Table S3)” value in experiment [2] (cell AbeH) was -19.7 ± 1.7 kJ/mol; in experiment [3] (cell BorH), -17.2 ± 1.3 kJ/mol. For the same compound, the “AbeH bromination compared with chlorination of the substrate, in words” value in experiment [4] is reported as “prefers chlorination over bromination”. Besides, the “Trp affinity of BorH higher than that of AbeH” value in experiment [3] was found to be 2 fold. The “Trp affinity of BorH lower than the FAD affinity” value in experiment [3] is 30 ×.
